Results published in ChEMBL document CHEMBL1123856, “Synthesis and biological activities of arginine-vasopressin analogues with 4-hydroxyproline in position 7” (1987).
Positions of bridges follow the written chain, without caps; N, C: chain ends. Non-standard residues stand in square brackets, D forms with d. Residues, ends and D or L forms follow the SMILES beside them. NMeA = CN[C@@H](C)C(=O)O; Mpa = O=C(O)CCS

What was measured:
Rattus norvegicus [1] = experiment: Antidiuretic activity on water loaded, ethanol-anesthetized rat.; format: functional, Urine
Rattus norvegicus [2] = experiment: Pressor activity on urethane-anesthetized, phenoxybenzamine-treated rat.; format: functional
Rattus norvegicus [3] = organism: Rattus norvegicus; experiment: Uterine activity was meseared in isolated rat uterus in solutions in the absence No Mg2+ 0.5 mM in vitro; format: functional
Rattus norvegicus [4] = organism: Rattus norvegicus; experiment: Uterine activity was meseared in isolated rat uterus in solutions in the presence Mg2+ 0.5 mM in vitro; format: functional

With NC(=O)CC[C@@H]1NC(=O)[C@H](Cc2ccccc2)NC(=O)[C@H](Cc2ccc(O)cc2)NC(=O)CCSSC[C@@H](C(=O)N2CC=C[C@H]2C(=O)N[C@@H](CCCN=C(N)N)C(=O)NCC(N)=O)NC(=O)[C@H](CC(N)=O)NC1=O the Antidiuretic activity (Rattus norvegicus [1]) was 4130 units/mg, the Pressor activity (Rattus norvegicus [2]) was 240 units/mg and the Uterine activity (Rattus norvegicus [3]) was 69 units/mg.

In the case of NC(=O)CC[C@@H]1NC(=O)[C@H](Cc2ccccc2)NC(=O)[C@H](Cc2ccc(O)cc2)NC(=O)[C@@H](N)CSSC[C@@H](C(=O)N2C[C@H](O)C[C@H]2C(=O)N[C@@H](CCCN=C(N)N)C(=O)NCC(N)=O)NC(=O)[C@H](CC(N)=O)NC1=O (stereo in doubt; form 2), the Antidiuretic activity (Rattus norvegicus [1]) is reported as 780 units/mg, the Pressor activity (Rattus norvegicus [2]) is reported as 1 units/mg and the Uterine activity (Rattus norvegicus [3]) is reported as 225 units/mg. The Uterine activity (Rattus norvegicus [4]) was 285 IU/mg.

With NC(=O)CC[C@@H]1NC(=O)[C@H](Cc2ccccc2)NC(=O)[C@H](Cc2ccc(O)cc2)NC(=O)[C@@H](N)CSSC[C@@H](C(=O)N2C[C@H](O)C[C@H]2C(=O)N[C@@H](CCCN=C(N)N)C(=O)NCC(N)=O)NC(=O)[C@H](CC(N)=O)NC1=O (stereo in doubt; form 1) the Antidiuretic activity (Rattus norvegicus [1]) was 712 units/mg, the Pressor activity (Rattus norvegicus [2]) was 4 units/mg and the Uterine activity (Rattus norvegicus [3]) was 73 units/mg. It also gave a Uterine activity (Rattus norvegicus [4]) of 268 IU/mg.

Compound N=C(N)NCCC[C@@H](NC(=O)[C@@H]1CCCN1C(=O)[C@@H]1CSSCCC(=O)N[C@@H](Cc2ccc(O)cc2)C(=O)N[C@@H](Cc2ccccc2)C(=O)N[C@@H](CCC(N)=O)C(=O)N[C@@H](CC(N)=O)C(=O)N1)C(=O)NCC(N)=O [DESMOPRESSIN] has an Antidiuretic activity (Rattus norvegicus [1]) of 1740 units/mg, a Pressor activity (Rattus norvegicus [2]) of 346 units/mg and a Uterine activity (Rattus norvegicus [3]) of 28 units/mg.

Compound NC(=O)CC[C@@H]1NC(=O)[C@H](Cc2ccccc2)NC(=O)[C@H](Cc2ccc(O)cc2)NC(=O)[C@@H](N)CSSC[C@@H](C(=O)N2C[C@H](O)C[C@H]2C(=O)N[C@@H](CCCN=C(N)N)C(=O)NCC(N)=O)NC(=O)[C@H](CC(N)=O)NC1=O (stereo in doubt; form 3) has an Antidiuretic activity (Rattus norvegicus [1]) of 614 units/mg, a Pressor activity (Rattus norvegicus [2]) of 8 units/mg and a Uterine activity (Rattus norvegicus [3]) of 63 units/mg. It also gave a Uterine activity (Rattus norvegicus [4]) of 176 IU/mg.

Work on CC(C)C[C@H](NC(=O)[C@@H]1CSSC[C@H](N)C(=O)N[C@@H](Cc2ccc(O)cc2)C(=O)N[C@@H](Cc2ccccc2)C(=O)N[C@@H](CCC(N)=O)C(=O)N[C@@H](CC(N)=O)C(=O)N1)C(=O)N[C@@H](CCCN=C(N)N)C(=O)NCC(N)=O (H-CYFQNCLRG-NH2; disulfide 1-6) yielded an Antidiuretic activity (Rattus norvegicus [1]) of 19 units/mg.

Work on C[C@@H](C(=O)N[C@@H](CCCN=C(N)N)C(=O)NCC(N)=O)N(C)C(=O)[C@@H]1CSSCCC(=O)N[C@@H](Cc2ccc(O)cc2)C(=O)N[C@@H](Cc2ccccc2)C(=O)N[C@@H](CCC(N)=O)C(=O)N[C@@H](CC(N)=O)C(=O)N1 ([Mpa]YFQNC[NMeA]RG-NH2; disulfide 1-6) yielded an Antidiuretic activity (Rattus norvegicus [1]) of 113 units/mg, a Pressor activity (Rattus norvegicus [2]) of 1 units/mg and a Uterine activity (Rattus norvegicus [3]) of 2 units/mg. It also gave a Uterine activity (Rattus norvegicus [4]) of 8 IU/mg.

N=C(N)NCCC[C@H](NC(=O)[C@@H]1CCCN1C(=O)[C@@H]1CSSC[C@H](N)C(=O)N[C@@H](Cc2ccc(O)cc2)C(=O)N[C@@H](Cc2ccccc2)C(=O)N[C@@H](CCC(N)=O)C(=O)N[C@@H](CC(N)=O)C(=O)N1)C(=O)NCC(N)=O [VASOPRESSIN] gave an Antidiuretic activity (Rattus norvegicus [1]) of 323 units/mg and a Uterine activity (Rattus norvegicus [3]) of 12 units/mg.
